pIC50: −log10 of the molar value.
System: 885724-159-R-J1-PDC complex spheroid viability
Assay: Anticancer human tumor 885724-159-R-J1-PDC patient-derived pancreatic adenocarcinoma cell line growth inhibition [POLQ]
Conditions: for pIC50: curve of first compound; for viability, T/C: stronger effect = lower value
Summary of the method: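 Growth inhibition in 3D: complex spheroids (tumor PDC, HUVEC, MSC) treated with POLQ inhibitor combinations; where Cmax unknown, highest tested concentration 10 microM, except SN-38 at 1 microM.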

[1] = second compound 0.0316 µM, first compound 0.0316 µM
[2] = second compound 0.0316 µM, first compound 0.1 µM
[3] = second compound 0.0316 µM, first compound 0.316 µM
[4] = second compound 0.0316 µM, first compound 1 µM
[5] = second compound 0.0316 µM, first compound 3.16 µM
[6] = second compound 0.0316 µM, first compound 10 µM
[7] = second compound 0.1 µM, first compound 0.0316 µM
[8] = second compound 0.1 µM, first compound 0.1 µM
[9] = second compound 0.1 µM, first compound 0.316 µM
[10] = second compound 0.1 µM, first compound 1 µM
[11] = second compound 0.1 µM, first compound 3.16 µM
[12] = second compound 0.1 µM, first compound 10 µM
[13] = second compound 0.316 µM, first compound 0.0316 µM
[14] = second compound 0.316 µM, first compound 0.1 µM
[15] = second compound 0.316 µM, first compound 0.316 µM
[16] = second compound 0.316 µM, first compound 1 µM
[17] = second compound 0.316 µM, first compound 3.16 µM
[18] = second compound 0.316 µM, first compound 10 µM
[19] = second compound 1 µM, first compound 0.0316 µM
[20] = second compound 1 µM, first compound 0.1 µM
[21] = second compound 1 µM, first compound 0.316 µM
[22] = second compound 1 µM, first compound 1 µM
[23] = second compound 1 µM, first compound 3.16 µM
[24] = second compound 1 µM, first compound 10 µM
[25] = second compound 3.16 µM, first compound 0.0316 µM
[26] = second compound 3.16 µM, first compound 0.1 µM
[27] = second compound 3.16 µM, first compound 0.316 µM
[28] = second compound 3.16 µM, first compound 1 µM
[29] = second compound 3.16 µM, first compound 3.16 µM
[30] = second compound 3.16 µM, first compound 10 µM
[31] = second compound 10 µM, first compound 0.0316 µM
[32] = second compound 10 µM, first compound 0.1 µM
[33] = second compound 10 µM, first compound 0.316 µM
[34] = second compound 10 µM, first compound 1 µM
[35] = second compound 10 µM, first compound 3.16 µM
[36] = second compound 10 µM, first compound 10 µM
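Further: spheroids exposed to compounds for 7 days.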

SMILES: C=CC(=O)N1CCN(c2nc(=O)n(-c3c(C)ccnc3C(C)C)c3nc(-c4c(O)cccc4F)c(F)cc23)C(C)C1 (stereo unspecified) + Cc1cccc(N(C)C(=O)C2C(O)CCN2c2nc(C)cc(C(F)(F)F)c2C#N)c1
- pIC50 (second compound 0.0316 µM): < 5.00
- pIC50 (second compound 0.1 µM): < 5.00
- pIC50 (second compound 0.316 µM): < 5.00
- pIC50 (second compound 1 µM): < 5.00
- pIC50 (second compound 3.16 µM): < 5.00
- pIC50 (second compound 10 µM): < 5.00
- viability, T/C [1]: 105%
- viability, T/C [2]: 90.7%
- viability, T/C [3]: 99.5%
- viability, T/C [4]: 97.8%
- viability, T/C [5]: 104%
- viability, T/C [6]: 96.4%
- viability, T/C [7]: 95.4%
- viability, T/C [8]: 86.6%
- viability, T/C [9]: 99.1%
- viability, T/C [10]: 96.8%
- viability, T/C [11]: 108%
- viability, T/C [12]: 88.7%
- viability, T/C [13]: 98.6%
- viability, T/C [14]: 95%
- viability, T/C [15]: 91.3%
- viability, T/C [16]: 105%
- viability, T/C [17]: 105%
- viability, T/C [18]: 88%
- viability, T/C [19]: 94.8%
- viability, T/C [20]: 92.1%
- viability, T/C [21]: 95.3%
- viability, T/C [22]: 108%
- viability, T/C [23]: 103%
- viability, T/C [24]: 92.3%
- viability, T/C [25]: 98.5%
- viability, T/C [26]: 94.7%
- viability, T/C [27]: 98.8%
- viability, T/C [28]: 99.4%
- viability, T/C [29]: 110%
- viability, T/C [30]: 88.7%
- viability, T/C [31]: 95.4%
- viability, T/C [32]: 91.8%
- viability, T/C [33]: 96.1%
- viability, T/C [34]: 109%
- viability, T/C [35]: 107%
- viability, T/C [36]: 93.2%

SMILES: CC(C)n1c(=O)n(C)c2cnc3cc(F)c(-c4ccc(OCCCN5CCCCC5)nc4)cc3c21 + Cc1cccc(N(C)C(=O)C2C(O)CCN2c2nc(C)cc(C(F)(F)F)c2C#N)c1
- pIC50 (second compound 0.0316 µM): < 5.00
- pIC50 (second compound 0.1 µM): < 5.00
- pIC50 (second compound 0.316 µM): < 5.00
- pIC50 (second compound 1 µM): < 5.00
- pIC50 (second compound 3.16 µM): < 5.00
- pIC50 (second compound 10 µM): < 5.00
- viability, T/C [1]: 104%
- viability, T/C [2]: 104%
- viability, T/C [3]: 99.9%
- viability, T/C [4]: 97.8%
- viability, T/C [5]: 93.9%
- viability, T/C [6]: 68.8%
- viability, T/C [7]: 108%
- viability, T/C [8]: 95.8%
- viability, T/C [9]: 109%
- viability, T/C [10]: 91.2%
- viability, T/C [11]: 96.8%
- viability, T/C [12]: 72.2%
- viability, T/C [13]: 109%
- viability, T/C [14]: 102%
- viability, T/C [15]: 102%
- viability, T/C [16]: 98.8%
- viability, T/C [17]: 99.3%
- viability, T/C [18]: 66.6%
- viability, T/C [19]: 104%
- viability, T/C [20]: 100%
- viability, T/C [21]: 104%
- viability, T/C [22]: 116%
- viability, T/C [23]: 87.7%
- viability, T/C [24]: 60.2%
- viability, T/C [25]: 106%
- viability, T/C [26]: 112%
- viability, T/C [27]: 107%
- viability, T/C [28]: 102%
- viability, T/C [29]: 86.2%
- viability, T/C [30]: 61.3%
- viability, T/C [31]: 106%
- viability, T/C [32]: 95.4%
- viability, T/C [33]: 111%
- viability, T/C [34]: 101%
- viability, T/C [35]: 88.9%
- viability, T/C [36]: 60.7%

SMILES: CC1COCCN1c1cc(-c2ccnn2C)c2ccnc(-c3ccn[nH]3)c2n1 (stereo unspecified) + Cc1cccc(N(C)C(=O)C2C(O)CCN2c2nc(C)cc(C(F)(F)F)c2C#N)c1
- pIC50 (second compound 0.0316 µM): 6.46
- pIC50 (second compound 0.1 µM): 6.20
- pIC50 (second compound 0.316 µM): 6.44
- pIC50 (second compound 1 µM): 6.33
- pIC50 (second compound 3.16 µM): 6.24
- pIC50 (second compound 10 µM): 6.36
- viability, T/C [1]: 85.6%
- viability, T/C [2]: 61.2%
- viability, T/C [3]: 52.3%
- viability, T/C [4]: 42.6%
- viability, T/C [5]: 45.5%
- viability, T/C [6]: 39%
- viability, T/C [7]: 87%
- viability, T/C [8]: 66.2%
- viability, T/C [9]: 54.2%
- viability, T/C [10]: 47.5%
- viability, T/C [11]: 44.7%
- viability, T/C [12]: 36.1%
- viability, T/C [13]: 89.3%
- viability, T/C [14]: 61.5%
- viability, T/C [15]: 51.5%
- viability, T/C [16]: 47.2%
- viability, T/C [17]: 40.6%
- viability, T/C [18]: 41.4%
- viability, T/C [19]: 82.9%
- viability, T/C [20]: 65.1%
- viability, T/C [21]: 50.2%
- viability, T/C [22]: 47.4%
- viability, T/C [23]: 41.9%
- viability, T/C [24]: 38.3%
- viability, T/C [25]: 77.8%
- viability, T/C [26]: 63.2%
- viability, T/C [27]: 51.9%
- viability, T/C [28]: 47%
- viability, T/C [29]: 46.5%
- viability, T/C [30]: 37.8%
- viability, T/C [31]: 86%
- viability, T/C [32]: 58.5%
- viability, T/C [33]: 50.4%
- viability, T/C [34]: 53.3%
- viability, T/C [35]: 49.6%
- viability, T/C [36]: 40.2%

From PubChem BioAssay AID1963832 (Molecular Pharmacology Branch, DTP, NCI, 2024)
